The source of these data is patent US12029728B2, “Small molecules with anti-protozoan activity” (New Mexico Tech University Research Park Corporation, priority 2018, dated 2024).

For one series, the system named is T. cruzi epimastigotes. In words: T. cruzi epimastigote toxicity, visually assessed. The series is classed as cell-based, Trypanosoma cruzi. The settings on record: 48 hours at 30° C. On the procedure: A 1:20 working dilution of T. cruzi epimastigotes was prepared in LIT1029 medium from a saturated (˜4×10^6 cells/mL) culture. 100 μL of the 1:20 working dilution was plated, and the epimastigotes were incubated with a compound of the disclosure at varying concentrations for 48 hours at 30° C. Following T. cruzi epimastigote treatment with a compound of the disclosure, the toxicity of compounds towards T. cruzi epimastigotes was visually assessed.

In series [1] the test system is T. cruzi amastigotes and trypomastigotes. In words: Viability of tdTomato T. cruzi amastigotes and trypomastigotes, fluorescence. The settings on record: 25 μM, 48 hours at 37° C. The class given is cell-based, Trypanosoma cruzi. On the procedure: The viability of a mixture of T. cruzi amastigotes and trypomastigotes after exposure to 25 μM of the compounds of the disclosure was determined. 2×10^5 parasites/100 μL were plated in 96-well plates. Parasites expressing tdTomato were used to assess parasite viability using fluorescence measurements. Parasites were incubated with 25 μM of the compounds of the disclosure for 48 hours at 37° C. After the incubation period, the viability of amastigotes and trypomastigotes was assessed by measuring the fluorescence intensity at 510 nm-590 nm using a Tecan plate reader, where the presence of fluorescence indicated viable amastigotes/trypomastigotes.

The test system of series [2] is T. cruzi-infected ARPE cells. In words: Treatment of T. cruzi-infected ARPE cells, imaging. The class given is cell-based, Trypanosoma cruzi. The protocol:
Four confocal dishes were prepared with 10,000 ARPE cells, which were adhered overnight at 37° C. The four dishes were ARPE control cells, non-infected but 5 μM Compound 2-treated cells, non-treated but infected cells, and infected cells treated with 5 μM Compound 2. For the infected dishes, ARPE media was removed and replaced with 2 mL of infectious amastigotes and trypomastigotes from the ARPE passaged plate. The dishes were then incubated for 2 hours at 37° C. The treated dishes were incubated with 5 μM Compound 2 for 5 days at 37° C., while untreated dishes were incubated in fresh media without Compound 2 for 5 days at 37° C. After the 5-day period, cells were washed 3 times in ARPE media and fixed with 1 mL 4% paraformaldehyde. Cells were visualized using an EVOS cell imaging system. Amastigotes appeared as small, dense, and mostly birefringent in images.
The experiment above was repeated using 1 μM Compound 2.
Four confocal dishes with 10,000 ARPE cells were prepared and adhered overnight at 37° C. The four dishes were: 1) ARPE control cells; 2) non-infected cells treated with 1 μM Compound 2; 3) untreated infected cells; and 4) T. cruzi-infected cells treated with 1 μM Compound 2. For the infected dishes, ARPE media was removed and replaced with 2 mL of infectious amastigotes and trypomastigotes expressing tdTomato (from ARPE passaged plate). The dishes were then incubated overnight for 7 days at 37° C. The untreated dishes were incubated in fresh media without Compound 2 for 7 days at 37° C. After the 7-day incubation period, cells were washed 3 times in ARPE media and fixed with 1 mL 4% paraformaldehyde. tdTomato fluorescence, which is indicative of viable T. cruzi, was then observed via fluorescence microscopy.
ARPE cells were plated in confocal dishes (20,000 cells per dish) and incubated overnight at 37° C. Cells were infected with T. cruzi by incubating cells with T. cruzi amastigotes and trypomastigotes expressing tdTomato (˜2×10^5 cells in total) for 24 hours at 37° C. Uninfected cells served as controls. Following the T. cruzi incubation period, extracellular parasites were removed, and the medium was replaced with DMEM/F12 culture media with or without 1 μM Compound 2. The cells were incubated further for 24 hours at 37° C. Cells were then treated two more times with fresh DMEM/F12 culture media with or without 1 μM Compound 2 and incubated for 24 hours at 37° C. Following fixation of cells in 4% paraformaldehyde, plates were imaged for tdTomato fluorescence, which is indicative of viable T. cruzi, such that the effects of repeated Compound 2 treatment could be compared to a single treatment with Compound 2.
ARPE cells were plated in confocal dishes (20,000 cells per dish) and incubated overnight at 37° C. Cells were infected with T. cruzi by incubating cells with T. cruzi amastigotes and trypomastigotes expressing tdTomato (˜2×10^5 cells in total) for 24 hours at 37° C. before washing dishes three times with DMEM/F12 culture media. Uninfected plates served as controls. The dishes were then treated with 2 μM Compound 2 or left untreated as a control and incubated further for 5 days at 37° C. The treated dish received a single treatment of Compound 2 on day 1. Dishes were washed twice with DMEM/F12 media and fixed in 4% paraformaldehyde before being imaged using confocal microscopy. […] The other Compound 2 dishes that were not incubated with T. cruzi a second time were used as controls. Following fixation of cells in 4% paraformaldehyde, tdTomato fluorescence of the cells was assessed using confocal microscopy.
ARPE cells were plated in confocal dishes (20,000 cells per dish) and incubated overnight at 37° C. Dishes were incubated with T. cruzi amastigotes and trypomastigotes expressing tdTomato (˜2×10^5 cells) for 48 hours at 37° C. Untreated cells served as controls. Cells were then washed 3 times with cell medium, treated with 5 μM Compound 2 or left untreated as a control and incubated further for 2 days at 37° C. […]

In series [3] the test system is T. cruzi-infected VERO cells. In words: Treatment of T. cruzi-infected VERO cells, confocal microscopy. The series is classed as cell-based, Trypanosoma cruzi. The settings on record: 5 μM, 5 days. The protocol: 2×10^4 VERO cells were plated in individual confocal dishes and allowed to adhere for 16 hours at 37° C. […] The T. cruzi-infected dishes were incubated with ˜2×10^6 T. cruzi/mL for 24 hours at 37° C. to allow for internalization of parasites. T. cruzi parasites expressed tdTomato, which allowed for visualization of parasites within cells. After the 24-hour T. cruzi incubation period, extracellular parasites were removed from culture dishes. The cells were washed 3 times with cell culture media (10% fetal bovine serum; 1% penicillin/streptomycin). Designated plates were then incubated with 5 μM Compound 2 or 5 μM Compound 7 for 5 days at 37° C. Cells were then fixed in 2% paraformaldehyde and tdTomato fluorescence in cells was assessed via confocal microscopy.

In a further series the test system is L. major-infected MDMs. In words: L. major-infected human MDMs, quantitative cell bioimaging. The series is classed as cell-based, Leishmania major. The settings on record: 2 μM or 20 μM. The protocol:
Human MDMs were cultured on glass slides and incubated with metacyclic L. major for 24 hours to allow for internalization of parasites. After the 24-hour L. major incubation period, extracellular parasites were removed from the culture. 24 hours after the removal of extracellular parasites, infected cells were treated with vehicle control (DMSO), 5 μM MTF, 1 μM Compound 2, 5 μM Compound 2, 10 μM Compound 2, 2 μM Compound 7, or 20 μM Compound 7. Following treatment, the cells were fixed with 2% paraformaldehyde and subsequently stained with the DNA stain Hoechst 33342. The stained cover slips were transferred onto glass slides, and quantitative cell bioimaging was utilized to determine the number of amastigotes per 500 cells using a CellInsight CX5 High Content screening platform.

The subject of the next series is PBMC cells. In words: MTT toxicity assay on PBMC / monocyte-derived macrophages. Particulars: 5 (μM) MTF, 48 hours. The series is classed as cell-based, Human. On the procedure: Human peripheral blood mononuclear cells (PBMC) were plated onto polylysine-coated glass slides in 24-well plates and allowed to differentiate towards monocyte-derived macrophages (MDMs). Non-adherent cells were removed 48-hours post plating. Adherent monocytes were left to further differentiate for another 48 hours to MDMs. Following the completion of the differentiation period, MDMs were treated with vehicle control (DMSO), […], or 10 μM of Compound 1, Compound 3, Compound 4, Compound 6, Compound 7, Compound 8, Compound 9, Compound 10, or Compound 11 for 48 hours.
A general note: Tetrazolium dyes change colour on reduction, which living cells bring about.

Take `Cn1c(-c2ccc3ccccc3c2)c(C(C(=O)NO)c2ccccc2)c2ccccc21` (stereo not drawn) [Compound 7, N-hydroxy-2-(1-methyl-2-(naphthalen-2-yl)-1H-indol-3-yl)-2-phenylacetamide]: the “Concentration at which T. cruzi epimastigote death is greater than or equal to ~99%” value in the series with T. cruzi epimastigotes was no less than 100 µM. Moreover, the killing at 100 µM with T. cruzi epimastigotes (Trypanosoma cruzi, epimastigotes, 100 μM, read-out: T. cruzi death @ 100 μM) is 100%. In series [1], the “toxicity to T. cruzi amastigotes and trypomastigotes” value is given as “most toxic”. Besides, in series [2] (1 μM, 3 days), the parasitic burden entry was “decreased parasitic burden” and the “protection from a recurring infection” value is recorded as “not protected from a recurring infection”. In series [2] (2 μM, two days), the “T. cruzi in ARPE cells (CherryTomato fluorescence)” value is “eradicated T. cruzi”. For the same molecule, the “T. cruzi infections in ARPE cells” value in series [2] (2.5 μM, 3 days) is reported as “minimal”. Moreover, the “T. cruzi in ARPE cells” value in series [2] (5 μM, 3 days) was “eradicated”. Besides, the “intracellular T. cruzi and re-infection” value in series [2] (single dose of 2 μM, 2 days) is “killed intracellular T. cruzi and protected the cells from re-infection”. In series [3], the “T. cruzi infection in VERO cells” value is listed as “eradication of T. cruzi infection”. Moreover, the “number of parasites per cell” value with L. major-infected MDMs is “decreased the number of parasites per cell”.

As for `CCCCCCCCCCCCCCCCOP(=O)([O-])OCC[N+](C)(C)C` [MTF, miltefosine], the “toxicity to PBMC cells (MTT)” value in the series with PBMC cells is listed as “not toxic”.
